{
  "source": "BindingDB's records for doi:10.7270/Q27W69N8",
  "about": "(Srmlsc, 2009)",
  "note": "Where “and” joins values, the source holds several entries; their conditions need not be identical. Identical values can stand only once. Counter-ions that a name gives are not always drawn.",
  "data": [
    {"molecular_target": "T1, M17 leucyl aminopeptidase (Plasmodium falciparum (isolate 3D7), UniProt Q8IL11)", "T1 sequence (Q8IL11 whole entry)": "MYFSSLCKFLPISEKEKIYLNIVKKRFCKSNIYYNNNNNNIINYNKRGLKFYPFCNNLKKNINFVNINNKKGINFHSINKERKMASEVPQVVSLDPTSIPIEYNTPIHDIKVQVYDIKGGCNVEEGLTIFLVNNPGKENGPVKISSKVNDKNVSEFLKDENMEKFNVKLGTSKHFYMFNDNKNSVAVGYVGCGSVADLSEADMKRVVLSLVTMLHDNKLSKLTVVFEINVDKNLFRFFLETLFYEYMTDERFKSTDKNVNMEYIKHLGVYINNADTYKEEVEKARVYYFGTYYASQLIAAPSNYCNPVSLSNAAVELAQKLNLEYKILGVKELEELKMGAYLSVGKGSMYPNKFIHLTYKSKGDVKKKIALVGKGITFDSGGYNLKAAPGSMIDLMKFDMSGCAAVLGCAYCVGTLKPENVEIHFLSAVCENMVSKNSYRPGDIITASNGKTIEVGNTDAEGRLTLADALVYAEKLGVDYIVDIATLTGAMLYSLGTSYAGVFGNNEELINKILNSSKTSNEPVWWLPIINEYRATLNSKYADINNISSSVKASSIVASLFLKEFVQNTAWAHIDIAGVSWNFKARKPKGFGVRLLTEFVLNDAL", "test": "P. falciparum M17LAP inhibitors, primary screen, biochemical, fluorogenic H-Leu-NHMec substrate, 1536-well (AID 1619)", "values": [
      {"smiles": "Cc1[nH][nH]c(=O)c1CCC(=O)NN=Cc1cccc(Cl)c1", "note": "[N'-[(1Z)-(3-chlorophenyl)methylene]-3-(3-methyl-5-oxo-4,5-dihydro-1H-pyrazol-4-yl)propanohydrazide]", "IC50": "20.9 µM"},
      {"smiles": "Cc1[nH][nH]c(=O)c1CCC(=O)NN=CC=Cc1ccccc1", "IC50": "51.4 µM"},
      {"smiles": "N#Cc1c(NC=C2C(=O)NC(=S)NC2=O)sc2c1CCCC2", "note": "[SMR000305847]", "IC50": "110 µM"},
      {"smiles": "CCCOc1ccc(-n2c(O)cc(SCCN)c2O)cc1", "note": "[3-(2-aminoethylthio)-1-(4-propoxyphenyl)pyrrolidine-2,5-dione;hydrochloride]", "IC50": "12 µM"},
      {"smiles": "COc1cc(CN=Nc2ccc(Cl)c(C(=O)O)c2)ccc1OC(=O)c1ccco1", "note": "[2-chloro-5-[2-[[4-[2-furanyl(oxo)methoxy]-3-methoxyphenyl]methylidene]hydrazinyl]benzoic acid]", "IC50": "48.8 µM"},
      {"smiles": "CCOC(=O)C1C(=O)C(=Cc2ccc(OCC(=O)O)c(OCC)c2)SC1=Nc1ccc(C)cc1", "note": "(stereo not drawn) [(2-ethoxy-4-{[4-(ethoxycarbonyl)-5-[(4-methylphenyl)amino]-3-oxo-2(3H)-thienylidene]methyl}phenoxy)acetic acid]", "IC50": "15.6 µM"},
      {"smiles": "Cc1ccc(-c2n[nH]c3c2C(c2ccoc2)C(C#N)C(=N)O3)cc1C", "note": "(stereo not drawn) [SMR000078160]", "IC50": "3.65 µM"},
      {"smiles": "CC(CC1CC(C)(C)OC1=O)N=Nc1nc(-c2ccccc2)cs1", "note": "(stereo not drawn) [SMR000220752]", "IC50": "52.8 µM"},
      {"smiles": "O=NCc1cn(CC(=O)N2CCOCC2)c2ccccc12", "note": "[2-[3-(hydroxyiminomethyl)indol-1-yl]-1-morpholin-4-ylethanone]", "IC50": "78.9 µM"},
      {"smiles": "Cc1ccc(SCc2n[nH]c3c2C2(CCSCC2)C(C#N)C(=N)O3)cc1", "note": "(stereo not drawn) [6-amino-3-[(4-methylphenyl)sulfanylmethyl]spiro[2H-pyrano[2,3-c]pyrazole-4,4'-thiane]-5-carbonitrile]", "IC50": "91 µM"},
      {"smiles": "Cc1[nH][nH]c(=O)c1CCC(=O)NN=Cc1ccccc1[N+](=O)[O-]", "IC50": "3.14 µM"},
      {"smiles": "Cc1[nH][nH]c(=O)c1CCC(=O)NN=Cc1ccc(Cl)cc1", "IC50": "52.6 µM"},
      {"smiles": "Cc1cc(CN=Nc2ccc([N+](=O)[O-])cn2)c(C)n1-c1ccc(C(=O)O)cc1", "note": "[4-{2,5-dimethyl-3-[2-(5-nitro-2-pyridinyl)carbonohydrazonoyl]-1H-pyrrol-1-yl}benzoic acid]", "IC50": "12.7 µM"},
      {"smiles": "O=C1N=c2ccccc2=C1NNc1ccc(C(=O)O)cc1", "note": "[4-[2-(2-oxidanylideneindol-3-yl)hydrazinyl]benzoic acid]", "IC50": "84.3 µM"},
      {"smiles": "O=C(CSc1n[nH]c(=O)[nH]c1=O)NN=Cc1ccccc1O", "note": "[2-[(3,5-dioxo-2,3,4,5-tetrahydro-1,2,4-triazin-6-yl)thio]-N'-(2-hydroxybenzylidene)acetohydrazide]", "IC50": "129 µM"},
      {"smiles": "Cc1noc(NS(=O)(=O)c2ccc(N=CCC(=O)c3ccc4c(c3)OCO4)cc2)c1C", "note": "[4-[[(Z)-3-(1,3-benzodioxol-5-yl)-3-oxoprop-1-enyl]amino]-N-(3,4-dimethyl-5-isoxazolyl)benzenesulfonamide]", "IC50": "13.9 µM"},
      {"smiles": "Cc1ccc(/N=C2/S/C(=C\\c3cn(CC(=O)O)c4ccccc34)C(=O)N2C)cc1", "note": "[2-[3-[(Z)-[3-methyl-2-(4-methylphenyl)imino-4-oxo-5-thiazolidinylidene]methyl]-1-indolyl]acetic acid]", "IC50": "11.4 µM"},
      {"smiles": "CC(=O)N1CCC2(CC1)c1c(CSc3ccc(C)cc3)n[nH]c1OC(=N)C2C#N", "note": "(stereo not drawn) [SMR000036525]", "IC50": "21.1 µM"},
      {"smiles": "CC(C)(C)OC(=O)C1=[N+]2N[CH-]c3ccccc3C2C2(C(=O)c3ccccc3C2=O)[C@H]1c1ccc([N+](=O)[O-])cc1", "note": "(stereo partly drawn) [(2R,3R)-2-(4-nitrophenyl)-1',3'-dioxo-3-spiro[3,10b-dihydro-2H-pyrrolo[2,1-a]phthalazine-1,2'-indene]carboxylic acid tert-butyl ester]", "IC50": "2.23 µM"},
      {"smiles": "O=C(O)[C@H]1O[C@@H](Oc2c(-c3ccc(O)c(O)c3)oc3cc(O)cc(=O)c-3c2O)[C@H](O)[C@@H](O)[C@@H]1O", "note": "[quercetin glucuronide]", "IC50": "48.2 µM"},
      {"smiles": "COc1ccc(NC(=O)CSc2nc(C)cc(=O)[nH]2)cc1", "note": "[N-(4-methoxyphenyl)-2-[(4-methyl-6-oxo-5H-pyrimidin-2-yl)sulfanyl]acetamide]", "IC50": "3.09 µM"},
      {"smiles": "CC(C=NNC(=O)Cc1c(C)[nH][nH]c1=O)=Cc1ccccc1", "note": "[2-(3-methyl-5-oxidanylidene-1,4-dihydropyrazol-4-yl)-N-[[(E)-2-methyl-3-phenyl-prop-2-enylidene]amino]ethanamide]", "IC50": "52.8 µM"},
      {"smiles": "C=C(c1ccc(OC)cc1)c1sc(=S)n(CCC(=O)O)c1O", "IC50": "30.1 µM and 27.4 µM"},
      {"smiles": "N#CC1C(=N)Oc2[nH]nc(-c3ccc(F)cc3)c2C1c1ccncc1", "note": "(stereo not drawn) [6-amino-3-(4-fluorophenyl)-4-pyridin-4-yl-2,4-dihydropyrano[2,3-c]pyrazole-5-carbonitrile]", "IC50": "94.3 µM"},
      {"smiles": "C=c1[nH]n(CCC#N)c(=O)c1=Cc1ccc(N(C)C)cc1", "note": "[3-[(4E)-4-[[4-(dimethylamino)phenyl]methylidene]-3-methyl-5-oxo-1-pyrazolyl]propanenitrile]", "IC50": "120 µM"},
      {"smiles": "C=CCN1C(=O)/C(=C/c2ccc(OCC(=O)O)cc2)SC1=Nc1nccs1", "note": "[2-[4-[(Z)-[4-oxidanylidene-3-prop-2-enyl-2-(1,3-thiazol-2-ylimino)-1,3-thiazolidin-5-ylidene]methyl]phenoxy]ethanoic acid]", "IC50": "18.9 µM"},
      {"smiles": "COc1cccc(-c2n[nH]c3c2C(c2ccoc2)C(C#N)C(=N)O3)c1", "note": "(stereo not drawn) [MLS000558215]", "IC50": "76.8 µM"},
      {"smiles": "O=NCc1c[nH]c2ccccc12", "note": "[MLS000104363]", "IC50": "13.2 µM"},
      {"smiles": "CN1C(=O)/C(=C/c2ccc(-c3ccccc3[N+](=O)[O-])o2)S/C1=N/c1ccc(Cl)c(C(=O)O)c1", "note": "[2-Chloro-5-[3-methyl-5-[1-[5-(2-nitro-phenyl)-furan-2-yl]-meth-(Z)-ylidene]-4-oxo-thiazolidin-(2Z)-ylideneamino]-benzoic acid]", "IC50": "6.24 µM"},
      {"smiles": "Cc1ccc(SCc2cc(=O)[nH][nH]2)cc1", "note": "[5-p-Tolylsulfanylmethyl-2,4-dihydro-pyrazol-3-one]", "IC50": "1.77 µM"},
      {"smiles": "Cc1cc(C=C2C(=O)NC(=O)N(c3ccc(F)cc3)C2=O)c(C)n1-c1ccc(C(=O)O)cc1", "note": "[SMR000273525]", "IC50": "149 µM"},
      {"smiles": "CCCc1[nH]nc2c1C(CCc1ccccc1)C(C#N)C(=N)O2", "note": "(stereo not drawn) [6-azanyl-4-(2-phenylethyl)-3-propyl-2,4-dihydropyrano[2,3-c]pyrazole-5-carbonitrile]", "IC50": "55.7 µM"},
      {"smiles": "Cc1c(C)c(O)c(C=CCCC#CCCCC#CCO)c(C)c1O", "note": "[docebenone]", "IC50": "53.4 µM"},
      {"smiles": "O=C1c2ccccc2C(=O)C1C1=NC(C(=O)O)c2c1c(O)n(-c1ccc(Cl)cc1)c2O", "note": "(stereo not drawn) [MLS000331181]", "IC50": "71.6 µM"},
      {"smiles": "O=C(Nn1c(O)csc1=S)C(=O)Nn1c(O)csc1=S", "note": "[SMR000349781]", "IC50": "20.5 µM"},
      {"smiles": "C=CCOc1c(OC)cc(CN=Nc2cccc(C(=O)O)c2)c(Br)c1Br", "IC50": "1 µM"},
      {"smiles": "O=C(Cc1cc(=O)[nH][nH]1)NN=Cc1cccc(Cl)c1Cl", "IC50": "103 µM"},
      {"smiles": "CCc1nnc(NS(=O)(=O)c2ccc(N=CCC(=O)c3cccc4ccccc34)cc2)s1", "note": "[SMR000172027]", "IC50": "10.1 µM"},
      {"smiles": "N#CC1C(=N)Oc2nc(-c3ccccc3)[nH]c2C1c1cccnc1", "note": "(stereo not drawn) [5-amino-2-phenyl-7-pyridin-3-yl-3,7-dihydropyrano[2,3-d]imidazole-6-carbonitrile]", "IC50": "66.6 µM"},
      {"smiles": "C/C(=C\\c1ccco1)C1c2c(-c3ccccc3)n[nH]c2OC(=N)C1C#N", "note": "(stereo not drawn) [6-amino-4-[(E)-1-(furan-2-yl)prop-1-en-2-yl]-3-phenyl-2,4-dihydropyrano[2,3-c]pyrazole-5-carbonitrile]", "IC50": "83.7 µM"},
      {"smiles": "O=C1CCCC2=Nc3[nH]c(=S)[nH]c(=O)c3C(c3ccc(Br)cc3)C12", "note": "(stereo not drawn) [5-(4-bromophenyl)-2-thioxo-2,3,5,8,9,10-hexahydropyrimido[4,5-b]quinoline-4,6(1H,7H)-dione]", "IC50": "16.7 µM"},
      {"smiles": "C/C(=C\\c1ccco1)C1c2c(-c3ccc(C)cc3)n[nH]c2OC(=N)C1C#N", "note": "(stereo not drawn) [MLS000519110]", "IC50": "132 µM"},
      {"smiles": "CCOC(=O)C1C(=O)C(=Cc2ccc(OCC(=O)O)c(OCC)c2)SC1=Nc1ccc(OC)cc1", "note": "(stereo not drawn) [MLS000704394]", "IC50": "21.3 µM"},
      {"smiles": "Cc1ccc(-c2n[nH]c3c2C(c2cccnc2)C(C#N)C(=N)O3)cc1", "note": "(stereo not drawn) [6-amino-3-(4-methylphenyl)-4-pyridin-3-yl-1,4-dihydropyrano[2,3-c]pyrazole-5-carbonitrile]", "IC50": "25.8 µM"},
      {"smiles": "O=C(O)c1ccc(CN=Nc2ccc(F)cc2F)cc1", "note": "[SMR000364892]", "IC50": "99.4 µM"},
      {"smiles": "Cc1[nH][nH]c(=O)c1CCC(=O)NN=Cc1ccco1", "IC50": "69.2 µM"},
      {"smiles": "COc1ccc2sc(-n3c(O)c4c(c3O)CC(C)=CC4)nc2c1", "IC50": "35 µM"},
      {"smiles": "Cc1[nH][nH]c(=O)c1CCC(=O)NN=CC(Br)=Cc1ccccc1", "note": "[N'-(2-bromo-3-phenyl-2-propen-1-ylidene)-3-(3-methyl-5-oxo-4,5-dihydro-1H-pyrazol-4-yl)propanohydrazide]", "IC50": "8 µM"},
      {"smiles": "Cc1ccc(-c2ccc([CH+][N-]Nc3nc(O)c(CC(=O)O)s3)o2)c([N+](=O)[O-])c1", "note": "[SMR000135699]", "IC50": "101 µM"},
      {"smiles": "Cc1ccc(C2C(C(=O)c3ccc(Br)cc3)C(=O)C(=O)N2Cc2ccco2)o1", "note": "(stereo not drawn) [(4Z)-4-[(4-bromophenyl)-hydroxy-methylene]-1-(2-furfuryl)-5-(5-methyl-2-furyl)pyrrolidine-2,3-quinone]", "IC50": "66.4 µM"},
      {"smiles": "CCOc1cc(C2c3c(-c4ccccc4)n[nH]c3OC(=N)C2C#N)ccc1O", "note": "(stereo not drawn) [SMR000019337]", "IC50": "77.1 µM"},
      {"smiles": "COc1ccc(NC(=O)CSc2cc(O)n(-c3ccc4c(c3)OCCO4)c2O)cc1", "note": "[2-[1-(2,3-dihydro-1,4-benzodioxin-6-yl)-2,5-bis(oxidanylidene)pyrrolidin-3-yl]sulfanyl-N-(4-methoxyphenyl)ethanamide]", "IC50": "16.1 µM"},
      {"smiles": "C=c1cc2[nH]c(=O)c(=Cc3cccn3CCCOc3ccc(OC)cc3)c(=N)n2o1", "IC50": "10.9 µM"}
    ]}
  ]
}
